According to patent US10280198B2, “Therapeutic agents for reducing parathyroid hormone levels” (KAI PHARMACEUTICALS, INC., priority 2009, dated 2019):
Structures can show the parent of a compound that is named as a salt. Where two headings read alike, the source gives them in different places. Square brackets hold non-standard residues; d marks the D form. Peptide text beside a SMILES is read from it.

Assays:
plasma histamine [1] = assay: In vivo histamine release after IV bolus in normal Sprague Dawley rats (Example 6, FIG. 3 and 4)
[2] = test system: rat peritoneal mast cells; assay: In vitro histamine induction in rat peritoneal mast cells; type: cell-based
Summary of the method: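 Mast cells from peritoneal lavage of Sprague Dawley rats were incubated with compound at 10 μM for 15 min at 37 °C in HBSS + 25 mM HEPES pH 7.4. Supernatant histamine measured by EIA; response expressed as fold change versus pre-incubation levels.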

plasma histamine [3] = conditions: rat
Experimental: For the in vivo evaluation of histamine release, compounds were dosed in isoflurane-anesthetized normal rats at 2 mg/kg by IV bolus (administered over less than one minute). Plasma histamine was measured 5 minutes after compound administration (Cayman histamine EIA #589651).

[4] = molecular target: T1, human calcium-sensing receptor (CaSR) (Homo sapiens, UniProt P41180); assay: In vitro cell assay in HEK-293 expressing the human calcium-sensing receptor (IP1 production); type: cell-based; conditions: for EC50: Table 5, IP1 production in HEK293 cells expressing human CaSR, eight concentrations in duplicate, read-out: EC50 in CaSR in vitro assay; for potency to activate the human CaSR in vitro: HEK-293 cell assay
T1 construct: expressed in transfected cells; host or cells: HEK 293T cells, transiently transfected (lipofectamine 2000); in some cases HEK293 cells stably transfected
T1 sequence (P41180 20-1078): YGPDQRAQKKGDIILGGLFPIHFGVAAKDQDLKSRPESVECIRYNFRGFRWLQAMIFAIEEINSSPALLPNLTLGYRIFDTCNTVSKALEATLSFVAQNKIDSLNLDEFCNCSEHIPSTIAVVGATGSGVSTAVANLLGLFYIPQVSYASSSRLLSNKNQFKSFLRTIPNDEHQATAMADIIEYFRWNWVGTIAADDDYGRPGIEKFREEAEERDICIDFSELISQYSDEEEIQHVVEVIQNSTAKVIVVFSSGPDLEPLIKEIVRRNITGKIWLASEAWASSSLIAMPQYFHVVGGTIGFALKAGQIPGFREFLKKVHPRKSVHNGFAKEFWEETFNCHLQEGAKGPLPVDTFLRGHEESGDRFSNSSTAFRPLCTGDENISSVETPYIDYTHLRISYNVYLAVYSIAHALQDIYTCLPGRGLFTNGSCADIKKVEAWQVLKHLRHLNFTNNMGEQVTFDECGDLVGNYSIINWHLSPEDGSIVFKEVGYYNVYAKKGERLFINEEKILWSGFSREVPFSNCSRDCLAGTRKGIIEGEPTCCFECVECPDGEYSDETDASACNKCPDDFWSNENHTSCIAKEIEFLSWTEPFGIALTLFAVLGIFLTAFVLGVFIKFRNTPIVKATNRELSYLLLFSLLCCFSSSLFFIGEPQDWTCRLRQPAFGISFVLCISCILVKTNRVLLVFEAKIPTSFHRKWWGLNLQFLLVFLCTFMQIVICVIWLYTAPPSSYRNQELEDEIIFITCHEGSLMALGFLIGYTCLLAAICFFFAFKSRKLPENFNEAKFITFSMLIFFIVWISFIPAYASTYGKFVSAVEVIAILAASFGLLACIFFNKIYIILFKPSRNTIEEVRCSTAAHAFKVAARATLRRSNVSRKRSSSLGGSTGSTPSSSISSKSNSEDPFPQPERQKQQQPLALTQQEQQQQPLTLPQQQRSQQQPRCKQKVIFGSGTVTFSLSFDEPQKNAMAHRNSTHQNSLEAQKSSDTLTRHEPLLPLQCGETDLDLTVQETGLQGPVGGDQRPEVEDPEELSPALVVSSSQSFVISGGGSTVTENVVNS
Summary of the method: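 HEK293 cells transfected with human CaSR exposed to peptides at eight concentrations in duplicate (top 1 mM or 300 μM, ½-log dilutions) at 37 °C for 1.5 h.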

plasma PTH [5] = assay: 1K1C rat model of acute renal insufficiency, plasma PTH after dosing; type: in vivo; conditions: 1K1C rats, 3 mg/kg 30-minute IV infusion, FIG. 1
Source text: A rat model of acute renal insufficiency (also referred to as the 1K1C model) was developed to simulate the pathology of SHPT associated with end stage renal disease. […] The development of this model allowed for the further characterization of described compounds in the context of a subject with renal dysfunction and elevated PTH. Typical baseline PTH levels in this model averaged ˜450 pg/mL.
The ensuing ischemia/reperfusion (I/R) damage to the remaining kidney results in significant necrosis and renal failure. Serum creatinine levels were elevated for over 24-48 hours following I/R insult (data not shown). […] By 48 hours post-I/R, plasma PTH levels were elevated to ˜450 pg/mL (˜5 fold increase) and in some instances reach as high as ˜1200 pg/mL. This reproducible increase in serum creatinine and PTH provided a robust model that mimics the physiology seen ESRD patients.
The protocol used in this study is as follows. Male Sprague Dawley rats were purchased from Charles River Laboratories (Hollister, Calif.; requested purchase weight 250-275 g). […] Animals were maintained in a temperature-controlled environment with a constant 12 hours light/12 hours dark cycle and free access to food and water at all times. All experimental procedures with animals were performed according to IACUC guidelines.
General anesthesia was induced and maintained by intraperitoneal (IP) injection of sodium pentobarbital (5.2%, 0.4 mL/rat). For animals that received 45 minutes of renal ischemia an additional IP injection of sodium pentobarbital (5.2%, 0.1 mL/rat) was given to maintain the anesthetic plane. Blood sampling for PTH measurements following administration of compounds in normal rats was done under continuous isoflurane anesthesia.
For model development studies, the left femoral vein was cannulated with a PE-10 tube for blood drawing. Both kidneys were exposed via a laparotomy. A right nephrectomy was performed after the right renal pedicle and ureter were ligated with double 2-0 silk sutures. After confirmation of non-bleeding in the right pedicle, the left renal artery was carefully dissected and clamped with a micro vascular clip to induce left renal global ischemia. Renal ischemia was confirmed by observation of a global white-grey color change (blanching). The abdominal incision was temporarily covered with gauze to help maintain the temperature of the abdominal organs. After 45 minutes, the designated period of ischemia, the clip was removed and left renal artery flow was considered restored upon observation of a global restoration of red color. The abdominal incision was closed in layers with 2-0 silk sutures. The animal was then recovered from anesthesia. Physiological parameters including body temperature (36-37.5° C.) and body weight were measured throughout the procedure. Body temperature was monitored and maintained using a heat pad rectal probe feedback system.
Approximately 48 hours after the 1K1C surgery (I/R injury), animals were dosed with various compounds to measure effects on plasma PTH and calcium. In most cases, test articles were administered by IV infusion (infusion time 5, 10 or 30 minutes) although in some studies compounds were administered by IV bolus or subcutaneous (SC) bolus injection. For drug administration and blood draws, animals were anesthetized with isoflurane.

plasma histamine [6] = conditions: rat, in vivo, iv
plasma PTH [7] = assay: In vivo PTH lowering after IV bolus in isoflurane-anesthetized normal Sprague Dawley rats; parameters: species or system rat; conditions: Table 2; for % PTH reduction of baseline at 1 hour post IV administration of 0.5 mg/kg compound: isoflurane-anesthetized normal rats, 0.5 mg/kg IV; for 0.5 mg/kg IV bolus % PTH AUC of saline control: normal rats, AUC 1-4 h
Summary of the method: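 Peptides were given as a 0.5 mg/kg IV bolus to normal Sprague Dawley rats kept under isoflurane throughout, with saline bolus controls.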

plasma PTH [8] = assay: 1K1C rat model of acute renal insufficiency, plasma PTH after dosing; type: in vivo; conditions: 1K1C rats, oral 30 mg/kg

| Molecule | Histamine in vitro Fold change of non-treated at 10 uM [2] [fold] | Histamine response in vivo Fold change from pre-dose levels 5′ post injection 2 mg/kg IV bolus (plasma histamine [3]) [fold] | EC50 [4] [nM] | % PTH reduction of baseline at 1 hour post IV administration of 0.5 mg/kg compound (plasma PTH [7]) [%] | 0.5 mg/kg IV bolus % PTH AUC of saline control (plasma PTH [7]) [%] | other results |
| --- | --- | --- | --- | --- | --- | --- |
| CC(=O)N[C@H](CSSC[C@H](N)C(=O)O)C(=O)N[C@H](C)C(=O)N[C@H](CCCNC(=N)N)C(=O)N[C@H](CCCNC(=N)N)C(=O)N[C@H](CCCNC(=N)N)C(=O)N[C@H](C)C(=O)N[C@H](CCCNC(=N)N)C(N)=O [SEQ ID NO: 3, Ac-c(C)arrrar-NH2] | 0.6 | 0.9 |  |  |  | fold increase in histamine level relative to pre-dose (plasma histamine [1]; 3 mg/kg IV bolus, isoflurane-anesthetized Sprague Dawley rats, FIG. 4): no apparent histamine response |
| CC(=O)N[C@H](CS)C(=O)N[C@H](CCCNC(=N)N)C(=O)N[C@H](CCCNC(=N)N)C(=O)N[C@H](CCCNC(=N)N)C(=O)N[C@H](CCCNC(=N)N)C(=O)N[C@H](CCCNC(=N)N)C(N)=O [SEQ ID NO: 5, Ac-crrrrr-NH2] (Ac-[dC][dR][dR][dR][dR][dR]-NH2) |  |  | 2500 |  |  | mean PTH reduction at the 24 hour time point (plasma PTH [5]): 60% |
| CC(=O)N[C@H](CS)C(=O)N[C@H](C)C(=O)N[C@H](CCCNC(=N)N)C(=O)N[C@H](C)C(=O)N[C@H](CCCNC(=N)N)C(=O)N[C@H](CCCNC(=N)N)C(=O)N[C@H](CCCNC(=N)N)C(N)=O [SEQ ID NO: 15, Ac-cararrr-NH2] (Ac-[dC][dA][dR][dA][dR][dR][dR]-NH2) | 2.5 | 1.0 | 13000 | 75 | 116 | histamine response after IV bolus (plasma histamine [6]): lack of a histamine response; potency to activate the human CaSR in vitro [4]: significantly reduced potency in vitro in activating the CaSR |
| CC(=O)N[C@H](CS)C(=O)N[C@H](C)C(=O)N[C@H](CCCNC(=N)N)C(=O)N[C@H](CCCNC(=N)N)C(=O)N[C@H](CCCNC(=N)N)C(=O)N[C@H](CCCNC(=N)N)C(=O)N[C@H](C)C(N)=O [SEQ ID NO: 19, Ac-carrrra-NH2] (Ac-[dC][dA][dR][dR][dR][dR][dA]-NH2) | 1.3 | 0.9 |  | 29 | 72 |  |
| CC(=O)N[C@H](CS)C(=O)N[C@H](CCCNC(=N)N)C(=O)N[C@H](C)C(=O)N[C@H](CCCNC(=N)N)C(=O)N[C@H](CCCNC(=N)N)C(=O)N[C@H](CCCNC(=N)N)C(=O)N[C@H](C)C(N)=O [SEQ ID NO: 20, Ac-crarrra-NH2] (Ac-[dC][dR][dA][dR][dR][dR][dA]-NH2) | 1.1 | 1.0 |  | 45 | 69 |  |
| CC(=O)N[C@H](CS)C(=O)N[C@H](CCCNC(=N)N)C(=O)N[C@H](C)C(=O)N[C@H](CCCNC(=N)N)C(=O)N[C@H](CCCNC(=N)N)C(=O)N[C@H](C)C(=O)N[C@H](CCCNC(=N)N)C(N)=O [SEQ ID NO: 23, Ac-crarrar-NH2] (Ac-[dC][dR][dA][dR][dR][dA][dR]-NH2) | 1.5 | 0.8 |  | 0 | 43 |  |
| CC(=O)N[C@H](CS)C(=O)N[C@H](CCCNC(=N)N)C(=O)N[C@H](CCCNC(=N)N)C(=O)N[C@H](C)C(=O)N[C@H](CCCNC(=N)N)C(=O)N[C@H](C)C(=O)N[C@H](CCCNC(=N)N)C(N)=O [SEQ ID NO: 25, Ac-crrarar-NH2] (Ac-[dC][dR][dR][dA][dR][dA][dR]-NH2) |  | 0.9 |  |  |  |  |
| CC(=O)N[C@H](CS)C(=O)N[C@H](CCCNC(=N)N)C(=O)N[C@H](CCCNC(=N)N)C(=O)N[C@H](CCCNC(=N)N)C(=O)N[C@H](CCCNC(=N)N)C(=O)N[C@H](CCCNC(=N)N)C(=O)N[C@H](CCCNC(=N)N)C(=O)N[C@H](CCCNC(=N)N)C(=O)N[C@H](CCCNC(=N)N)C(N)=O [SEQ ID NO: 41, Ac-crrrrrrrr-NH2] |  |  | 300 |  |  | histamine fold over baseline (plasma histamine [1]; equimolar IV bolus 2.1 μmol/kg, normal rats, 5 minutes after dosing, FIG. 3): 6-9 fold; histamine response after IV bolus (plasma histamine [1]; rats, IV bolus): largest induction of histamine; potency to activate the human CaSR in vitro [4]: more potent at activating the CaSR |
| C[C@@H](NCCCc1cccc(C(F)(F)F)c1)c1cccc2ccccc12 [cinacalcet, Cinacalcet hydrochloride] |  |  |  |  |  | duration of PTH lowering (plasma PTH [8]): up to 6 hours; lowering of PTH (plasma PTH [8]): approximately 50% |
| Ac-c(C)rrarar-NH2 [SEQ ID NO: 28] | 0.7 | 0.9 |  | 0 | 16 |  |
